Experimental data as given in the NIST ThermoML archive (doi:10.1016/j.jct.2004.09.009).

Columns and labels:
[1] = Liquid; for mass density: 298.15 K, 101.33 kPa, Vibrating tube method; for vapor or sublimation pressure / Normal boiling temperature: Ebulliometric method (Recirculating still)
[2] = xn = mol fraction of the nth substance listed; details: 101.3 kPa, Liquid

CCC(C)O (stereo not drawn) [butan-2-ol]
[1]
Details | Normal boiling temperature [°C] | mass density [kg/m3]
– | 99.19 | 802.4

[1]
Details | vapor or sublimation pressure [kPa]
355.98 K | 53.32
358.8 K | 59.98
361.41 K | 66.64
363.82 K | 73.31
366.02 K | 79.97
368.13 K | 86.64
370.09 K | 93.3
370.83 K | 95.97
371.54 K | 98.63
372.34 K | 101.3
373.09 K | 103.97
373.79 K | 106.63
375.46 K | 113.3
377.04 K | 119.96
378.57 K | 126.63
380.02 K | 133.29
381.42 K | 139.95
382.76 K | 146.62
384.06 K | 153.28
385.31 K | 159.95
386.52 K | 166.61
387.69 K | 173.28
388.83 K | 179.94
389.94 K | 186.61
391 K | 193.27
392.05 K | 199.93
393.07 K | 206.6
394.07 K | 213.26
395.06 K | 219.93
396.01 K | 226.59
396.94 K | 233.26
397.86 K | 239.92
398.76 K | 246.59
399.64 K | 253.25
400.48 K | 259.91
401.34 K | 266.58
402.19 K | 273.24
402.98 K | 279.91
403.77 K | 286.57
404.56 K | 293.24
405.32 K | 299.9

COC(=O)OC [dimethyl carbonate]
[1]
Details | Normal boiling temperature [°C] | mass density [kg/m3]
– | 90.31 | 1063.36

CC1CCCCC1 [methylcyclohexane] + CCOC(=O)OCC
[2], x2 = 0
Details | mass density [kg/m3]
293.15 K | 769.3
298.15 K | 764.98
303.15 K | 760.65
308.15 K | 756.29
313.15 K | 751.93

CCOC(=O)OCC [diethyl carbonate] + CC1CCCCC1
mass density [kg/m3], [2]
Details | 293.15 K | 298.15 K | 303.15 K | 308.15 K | 313.15 K
x1 = 0.0473 | 777.44 | 773.05 | 768.64 | 764.22 | 759.78
x1 = 0.0978 | 786.43 | 781.97 | 777.5 | 773 | 768.48
x1 = 0.1985 | 804.96 | 800.36 | 795.73 | 791.09 | 786.42
x1 = 0.2968 | 823.73 | 818.99 | 814.23 | 809.44 | 804.6
x1 = 0.3924 | 842.56 | 837.7 | 832.8 | 827.88 | 822.9
x1 = 0.4993 | 864.26 | 859.23 | 854.18 | 849.14 | 844.04
x1 = 0.5999 | 885.33 | 880.2 | 875.04 | 869.85 | 864.64
x1 = 0.6985 | 906.48 | 901.24 | 895.95 | 890.65 | 885.31
x1 = 0.7988 | 928.64 | 923.28 | 917.88 | 912.46 | 907.02
x1 = 0.8996 | 951.53 | 946.06 | 940.54 | 935.01 | 929.44
x1 = 0.9509 | 963.41 | 957.86 | 952.29 | 946.7 | 941.08
x1 = 1 | 974.83 | 969.24 | 963.61 | 957.96 | 952.29

CCOC(=O)OCC [diethyl carbonate]
[1]
Details | Normal boiling temperature [°C] | mass density [kg/m3]
– | 126.17 | 969.24

CC(C)O [propan-2-ol]
[1]
Details | Normal boiling temperature [°C] | mass density [kg/m3]
– | 82.46 | 780.87

[1]
Details | vapor or sublimation pressure [kPa]
345.46 K | 66.64
347.71 K | 73.31
349.79 K | 79.97
351.72 K | 86.64
353.54 K | 93.3
354.01 K | 95.04
355.25 K | 99.97
355.61 K | 101.3
356.27 K | 103.97
356.9 K | 106.63
358.45 K | 113.3
359.91 K | 119.96
361.29 K | 126.63
362.65 K | 133.29
363.94 K | 139.95
365.2 K | 146.62
366.38 K | 153.28
367.56 K | 159.95
368.65 K | 166.61
369.76 K | 173.28
371.81 K | 186.61
372.8 K | 193.27
373.76 K | 199.93
374.69 K | 206.6
375.57 K | 213.26
376.46 K | 219.93
377.29 K | 226.59
378.13 K | 233.26
378.93 K | 239.92
379.71 K | 246.59
380.45 K | 253.25
381.17 K | 259.91
381.89 K | 266.58
382.8 K | 273.24
383.48 K | 279.91
384.11 K | 286.57
384.79 K | 293.24
385.42 K | 299.9

CC1CCCCC1 [methylcyclohexane]
[1]
Details | Normal boiling temperature [°C] | mass density [kg/m3]
– | 100.92 | 764.98

[1]
Details | vapor or sublimation pressure [kPa]
352.46 K | 53.32
356.26 K | 59.98
359.62 K | 66.64
362.83 K | 73.31
365.81 K | 79.97
368.47 K | 86.64
370.99 K | 93.3
371.98 K | 95.97
373.08 K | 98.63
374.07 K | 101.3
374.95 K | 103.97
375.86 K | 106.63
378.04 K | 113.3
380.12 K | 119.96
382.12 K | 126.63
384.05 K | 133.29
385.89 K | 139.95
387.59 K | 146.62
389.36 K | 153.28
391.04 K | 159.95
392.8 K | 166.61
394.38 K | 173.28
395.87 K | 179.94
397.33 K | 186.61
398.76 K | 193.27
400.12 K | 199.93
401.45 K | 206.6
402.8 K | 213.26
404.1 K | 219.93
405.35 K | 226.59
406.56 K | 233.26
407.66 K | 239.92
408.9 K | 246.59
409.98 K | 253.25
